Laboratory results: ChEMBL document CHEMBL4017496 (J Med Chem, 2017)
Activity calls are given as the source filed them. The calls are words filed in the database; no cut-off is given here.

Assays:
Mus musculus [1] = assay: Antidiabetic activity in STZ-induced diabetic C57BL/6J mouse assessed as insulin sensitivity by measuring reduction of serum glucose levels at 20 mg/kg,po for 5 days measured at 1 and 4 hrs post last dose; type: functional, organism-based
[2] = target: T1, Peroxisome proliferator-activated receptor delta (Homo sapiens) (UniProt Q03181); assay: Displacement of Fluormone-Pan-PPAR Green from human GST-tagged PPARdelta LBD at 4 uM by TR-FRET assay relative to control
T1 sequence (whole entry): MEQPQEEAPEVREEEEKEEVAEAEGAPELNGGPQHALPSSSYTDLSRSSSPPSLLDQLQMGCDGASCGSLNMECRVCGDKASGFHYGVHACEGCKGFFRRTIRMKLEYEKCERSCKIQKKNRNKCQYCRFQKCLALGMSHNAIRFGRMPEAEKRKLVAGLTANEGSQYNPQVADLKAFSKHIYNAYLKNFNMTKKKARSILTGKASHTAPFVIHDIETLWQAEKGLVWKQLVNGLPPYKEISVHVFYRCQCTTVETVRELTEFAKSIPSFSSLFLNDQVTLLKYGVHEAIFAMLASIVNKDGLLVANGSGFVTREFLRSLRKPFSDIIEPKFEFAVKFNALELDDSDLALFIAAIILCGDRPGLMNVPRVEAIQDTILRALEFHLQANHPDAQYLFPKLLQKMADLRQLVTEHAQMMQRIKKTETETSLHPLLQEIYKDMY

Mus musculus [3] = assay: Antidiabetic activity in STZ-induced diabetic C57BL/6J mouse assessed as insulin sensitivity by measuring reduction of serum triglyceride level at 20 mg/kg,po for 5 days; type: functional, organism-based
[4] = target: T2, Oxysterols receptor LXR-alpha (Homo sapiens) (UniProt Q13133); assay: Binding affinity to human LXRalpha at 4 uM by TR-FRET assay
T2 sequence (whole entry): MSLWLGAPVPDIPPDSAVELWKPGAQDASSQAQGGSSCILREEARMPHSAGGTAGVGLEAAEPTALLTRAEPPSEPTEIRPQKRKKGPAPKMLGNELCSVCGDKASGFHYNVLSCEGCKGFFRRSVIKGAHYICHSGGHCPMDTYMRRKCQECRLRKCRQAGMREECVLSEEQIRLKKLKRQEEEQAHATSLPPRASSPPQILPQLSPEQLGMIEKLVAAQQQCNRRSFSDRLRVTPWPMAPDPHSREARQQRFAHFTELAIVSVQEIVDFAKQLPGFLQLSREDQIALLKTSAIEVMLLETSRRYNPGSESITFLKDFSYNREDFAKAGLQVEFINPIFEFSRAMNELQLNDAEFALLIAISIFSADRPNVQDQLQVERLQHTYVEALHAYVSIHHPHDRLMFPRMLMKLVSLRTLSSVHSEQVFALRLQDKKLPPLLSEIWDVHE

[5] = Induction of adipogenesis in human bone marrow-derived mesenchymal stem cells assessed as adiponectin level at 4 uM measured on day 7 after 48 hrs by ELISA; type: functional, Mesenchymal stem cell
[6] = target: Cyclin-dependent kinase 5/CDK5 activator 1 (Homo sapiens) (UniProt Q00535+Q15078); assay: Inhibition of human CDK5/p35 up to 20 uM using histone H1 as substrate after 40 mins in presence of [gamma32P]ATP by scintillation counting; type: protein-complex assay
Sequence of Cyclin-dependent kinase 5/CDK5 activator 1 (Homo sapiens) (Q00535 whole entry): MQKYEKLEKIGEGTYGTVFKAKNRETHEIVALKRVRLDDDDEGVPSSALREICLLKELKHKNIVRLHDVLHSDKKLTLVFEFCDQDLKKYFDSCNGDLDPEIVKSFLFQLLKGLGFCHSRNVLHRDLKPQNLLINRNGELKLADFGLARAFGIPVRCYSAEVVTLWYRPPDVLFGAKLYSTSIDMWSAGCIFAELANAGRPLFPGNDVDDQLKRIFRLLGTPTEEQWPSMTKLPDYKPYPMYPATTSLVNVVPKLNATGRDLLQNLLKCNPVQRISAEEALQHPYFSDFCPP
Sequence of Cyclin-dependent kinase 5/CDK5 activator 1 (Homo sapiens) (Q15078 99-307 partner limits assumed): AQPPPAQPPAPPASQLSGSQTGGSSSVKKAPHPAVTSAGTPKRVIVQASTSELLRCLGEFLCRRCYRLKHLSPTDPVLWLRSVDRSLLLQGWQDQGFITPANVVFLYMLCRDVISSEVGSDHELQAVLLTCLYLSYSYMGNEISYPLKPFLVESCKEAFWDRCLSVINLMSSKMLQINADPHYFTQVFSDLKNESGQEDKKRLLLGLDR

Mesenchymal stem cell [7] = assay: Induction of adipogenesis in human bone marrow-derived mesenchymal stem cells assessed as increase in adiponectin production at 20.4 uM after 7 days in presence of IDX; type: functional, cell-based
[8] = target: T3, Glucocorticoid receptor (Homo sapiens) (UniProt P04150); assay: Displacement of Fluormone-GS1 from human GST-tagged glucocorticoid receptor LBD at 4 uM by TR-FRET assay
T3 sequence (whole entry): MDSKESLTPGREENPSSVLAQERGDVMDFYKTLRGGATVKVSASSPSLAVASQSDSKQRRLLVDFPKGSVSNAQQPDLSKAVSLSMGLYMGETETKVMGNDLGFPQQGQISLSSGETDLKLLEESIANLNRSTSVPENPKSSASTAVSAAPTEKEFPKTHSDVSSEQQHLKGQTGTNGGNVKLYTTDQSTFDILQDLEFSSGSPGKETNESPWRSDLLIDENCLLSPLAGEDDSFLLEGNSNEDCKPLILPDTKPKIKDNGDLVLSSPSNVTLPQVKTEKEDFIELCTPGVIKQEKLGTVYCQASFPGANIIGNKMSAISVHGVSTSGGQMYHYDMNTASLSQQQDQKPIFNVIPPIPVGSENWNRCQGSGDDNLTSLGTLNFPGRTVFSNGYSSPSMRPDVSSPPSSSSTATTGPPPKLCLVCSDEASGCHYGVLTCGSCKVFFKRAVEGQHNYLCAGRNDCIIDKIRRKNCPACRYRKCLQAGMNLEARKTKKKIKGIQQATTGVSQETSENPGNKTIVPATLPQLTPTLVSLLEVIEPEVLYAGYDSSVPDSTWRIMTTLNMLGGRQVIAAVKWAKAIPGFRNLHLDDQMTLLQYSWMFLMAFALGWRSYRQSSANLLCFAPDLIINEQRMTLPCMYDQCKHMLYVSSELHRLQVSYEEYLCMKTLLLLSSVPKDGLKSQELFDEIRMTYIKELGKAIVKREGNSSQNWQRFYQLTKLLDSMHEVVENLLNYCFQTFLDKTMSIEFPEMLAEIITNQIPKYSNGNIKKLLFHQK

Mesenchymal stem cell [9] = assay: Induction of adipogenesis in human bone marrow-derived mesenchymal stem cells assessed as increase in number and size of lipid droplets at 20 uM after 7 days in presence of IDX by oil red O staining based inverted microscopic method; type: functional
Mesenchymal stem cell [10] = assay: Induction of adipogenesis in human bone marrow-derived mesenchymal stem cells assessed as increase in the production of adiponectin measured on day 7 after 48 hrs by ELISA; type: functional, cell-based
[11] = target: Peroxisome proliferator-activated receptor delta (Homo sapiens) (UniProt Q03181); assay: Antagonist activity at human GST-tagged PPARdelta LBD assessed as reduction in GW501516-induced fluorescein-C33 coactivator recruitment at 1 uM by TR-FRET assay relative to control

CNC(=O)[C@H]1O[C@@H](n2cnc3c(NCc4cccc(I)c4)ncnc32)[C@H](O)[C@@H]1O [IB-MECA]
Activity (Mus musculus [1]): Active | inhibition [2]: 26% | Activity (Mus musculus [3]): Active | Activity [4]: inactive | Activity [5]: 117 pg/mL | inhibition [6]: inactive | Activity (Mesenchymal stem cell [7]): Active | inhibition [8]: inactive | Activity (Mesenchymal stem cell [9]): Active | Activity (Mesenchymal stem cell [10]): Dose-dependent effect | inhibition [11]: 14%
